{"source": "patent US9505763B2", "about": "“Cancer treatment using BMP inhibitor” (Vanderbilt University, priority 2011, dated 2016)", "key": {"H1299 cells [1]": {"tested_on": "H1299 cells", "experiment": "Amine-reactive fluorescent dye (LIVE/DEAD) flow cytometry", "format": "cell-based", "experimental": "Cell death was also determined using the LIVE/DEAD fixable dead cell stain kit as per manufacturer's instructions (Life Technologies, L-23101). This assay employs an amine-reactive fluorescent dye, which in compromised membranes the dye reacts with free amines on the cell interior in dead cells. H1299 cells were treated with DMH2 for 48 hours and the percentage of dead cells then detected by flow cytometry."}, "VEGF II": {"target": "VEGF II (Homo sapiens, UniProt P35968)", "sequence (P35968 20-1356)": "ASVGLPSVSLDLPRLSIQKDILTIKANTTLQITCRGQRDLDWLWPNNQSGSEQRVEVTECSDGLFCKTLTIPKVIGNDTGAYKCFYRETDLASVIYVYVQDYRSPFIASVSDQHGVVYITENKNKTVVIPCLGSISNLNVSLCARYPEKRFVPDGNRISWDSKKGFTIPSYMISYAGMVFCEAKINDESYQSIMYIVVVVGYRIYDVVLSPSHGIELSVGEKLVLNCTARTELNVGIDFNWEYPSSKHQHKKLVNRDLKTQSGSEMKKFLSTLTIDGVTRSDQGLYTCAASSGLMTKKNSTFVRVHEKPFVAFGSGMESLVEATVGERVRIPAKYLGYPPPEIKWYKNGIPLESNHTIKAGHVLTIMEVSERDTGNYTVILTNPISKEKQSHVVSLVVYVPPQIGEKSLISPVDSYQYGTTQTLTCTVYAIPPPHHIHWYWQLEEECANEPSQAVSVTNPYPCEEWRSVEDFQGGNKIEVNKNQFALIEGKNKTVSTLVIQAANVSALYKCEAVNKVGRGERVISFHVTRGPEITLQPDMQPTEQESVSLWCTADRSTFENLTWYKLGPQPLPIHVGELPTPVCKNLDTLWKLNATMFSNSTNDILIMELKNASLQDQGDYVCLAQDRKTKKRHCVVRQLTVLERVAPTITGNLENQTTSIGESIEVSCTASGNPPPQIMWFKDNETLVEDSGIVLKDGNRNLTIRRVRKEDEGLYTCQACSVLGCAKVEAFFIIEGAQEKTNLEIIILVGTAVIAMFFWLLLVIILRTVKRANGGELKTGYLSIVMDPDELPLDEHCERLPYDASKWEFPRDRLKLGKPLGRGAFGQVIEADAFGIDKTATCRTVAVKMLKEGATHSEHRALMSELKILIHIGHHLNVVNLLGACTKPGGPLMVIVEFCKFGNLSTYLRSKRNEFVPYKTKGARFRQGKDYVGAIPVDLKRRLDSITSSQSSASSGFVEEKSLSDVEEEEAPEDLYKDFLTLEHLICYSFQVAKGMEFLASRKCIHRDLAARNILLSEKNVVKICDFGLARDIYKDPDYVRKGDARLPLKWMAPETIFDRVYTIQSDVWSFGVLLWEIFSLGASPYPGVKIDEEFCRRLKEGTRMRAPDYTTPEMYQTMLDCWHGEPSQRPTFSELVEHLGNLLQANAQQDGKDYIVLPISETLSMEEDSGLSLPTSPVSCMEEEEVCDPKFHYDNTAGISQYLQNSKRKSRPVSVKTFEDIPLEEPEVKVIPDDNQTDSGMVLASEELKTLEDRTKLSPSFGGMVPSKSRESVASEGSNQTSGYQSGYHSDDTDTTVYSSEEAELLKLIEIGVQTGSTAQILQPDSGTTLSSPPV", "details": "compared with Dorsomorphin and LDN; cited from earlier work"}, "TGFβ receptor alk5": {"target": "T1, TGFβ receptor alk5 (Homo sapiens, UniProt P36897)", "T1 sequence (P36897 34-503)": "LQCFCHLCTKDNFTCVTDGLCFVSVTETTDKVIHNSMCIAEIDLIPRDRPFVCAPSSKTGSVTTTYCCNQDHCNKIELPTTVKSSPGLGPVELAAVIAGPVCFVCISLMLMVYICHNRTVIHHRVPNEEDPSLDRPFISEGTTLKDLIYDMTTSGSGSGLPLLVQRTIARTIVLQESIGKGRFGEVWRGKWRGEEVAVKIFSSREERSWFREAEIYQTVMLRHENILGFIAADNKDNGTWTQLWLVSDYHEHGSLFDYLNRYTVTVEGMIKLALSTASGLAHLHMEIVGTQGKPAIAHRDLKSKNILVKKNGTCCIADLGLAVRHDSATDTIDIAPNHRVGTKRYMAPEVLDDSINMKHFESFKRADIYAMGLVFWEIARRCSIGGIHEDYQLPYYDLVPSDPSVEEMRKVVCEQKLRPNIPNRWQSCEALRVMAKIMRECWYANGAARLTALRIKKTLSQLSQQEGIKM", "details": "compared with Dorsomorphin and LDN; cited from earlier work"}, "AMP kinase": {"tested_on": "AMP kinase", "details": "compared with Dorsomorphin and LDN; cited from earlier work"}, "A549 cells [2]": {"tested_on": "A549 cells", "experiment": "Ethidium bromide uptake cell death assay", "format": "cell-based", "details": "48 hours, 10 μM Dorsomorphin or 1 μM selective antagonist", "experimental": "Cell Death Assay: A549 and H1299 cells were plated in 6 well plates with 10^6 cells per well. Cells were treated with DMSO or a BMP receptor antagonist for 12 and 48 hours. Adherent and floating cells were harvested and incubated with 0.1 mg/ml of ethidium bromide. Immediately after staining approximately 100 cells were counted and the percentage of cells that took up ethidium bromide was determined."}, "A549 cells [3]": {"tested_on": "A549 cells", "experiment": "Cell counts after 7 days", "format": "cell-based", "details": "DMEM 5% FCS, 10 μM Dorsomorphin or 1 μM DMH1, DMH2, LDN", "experimental": "(§1) Cell Counts. A549 and H1299 cells were plated into 6 well plates with 100,000 cells per well. Cells were treated with DMSO or a BMP receptor antagonist for 7 days. The cells were detached with trypsin, stained with trypan blue, and the number of live cells counted using a hemacytometer."}, "H1299 cells [4]": {"tested_on": "H1299 cells", "experiment": "Cell counts after 7 days", "format": "cell-based", "experimental": "as §1"}, "[5]": {"target": "T2, constitutively active alk3 (ca-alk3) (Homo sapiens, UniProt P36894, Q233D)", "T2 construct": "expressed in transfected cells; host or cells: H1299", "T2 sequence (P36894 24-532 Q233D)": "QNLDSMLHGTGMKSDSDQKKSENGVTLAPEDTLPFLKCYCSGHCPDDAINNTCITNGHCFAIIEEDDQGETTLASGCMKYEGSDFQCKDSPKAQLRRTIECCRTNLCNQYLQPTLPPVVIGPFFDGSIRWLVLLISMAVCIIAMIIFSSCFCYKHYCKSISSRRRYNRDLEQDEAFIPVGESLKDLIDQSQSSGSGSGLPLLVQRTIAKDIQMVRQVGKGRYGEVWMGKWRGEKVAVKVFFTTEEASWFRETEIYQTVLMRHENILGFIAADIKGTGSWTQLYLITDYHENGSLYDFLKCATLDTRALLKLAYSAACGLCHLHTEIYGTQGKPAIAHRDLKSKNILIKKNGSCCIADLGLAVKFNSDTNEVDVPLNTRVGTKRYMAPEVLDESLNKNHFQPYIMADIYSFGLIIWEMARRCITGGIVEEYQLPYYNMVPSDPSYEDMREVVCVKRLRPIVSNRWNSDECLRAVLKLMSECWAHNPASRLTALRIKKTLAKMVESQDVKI", "experiment": "BRE-luciferase with constitutively active alk3 in H1299 cells", "format": "cell-based", "details": "1 μM antagonist", "experimental": "To assess the effects of antagonists on a specific type I BMP receptor, 2 μg of constitutively active ca-alk3 and ca-alk6 expression vectors were co-transfected with the BRE-luciferase reporter into H1299 cells with Nucleofector II. Control cells were co-transfected with the pcDNA3 expression vector. After 48 hours the cells were treated with DMSO or a BMP receptor antagonist for 48 hours and luminescence was measured."}}, "note": "Entries after “also recorded” stand apart in the source; their conditions may differ.", "data": [{"compound": "CN(C)CCCOc1ccc(-c2cnc3c(-c4ccnc5ccccc45)cnn3c2)cc1", "note": "[DMH2]", "values": [{"measurement": "cell death (amine-reactive fluorescent dye)", "setting": "H1299 cells [1]", "value": "induced cell death"}, {"measurement": "activity for VEGF II (comparison)", "setting": "VEGF II", "value": "less activity"}, {"measurement": "activity for TGFβ receptor alk5 (comparison)", "setting": "TGFβ receptor alk5", "value": "less activity"}, {"measurement": "activity for AMP kinase (comparison)", "setting": "AMP kinase", "value": "less activity"}, {"measurement": "cell death (percentage of cells taking up ethidium bromide)", "setting": "A549 cells [2]", "value": "significant increase in cell death"}, {"measurement": "cell growth (number of cells)", "setting": "A549 cells [3]", "value": "significantly more growth inhibition than DMH1"}, {"measurement": "cell growth (number of cells)", "setting": "H1299 cells [4]; H1299, DMEM 5% FCS, 10 μM Dorsomorphin or 1 μM DMH1, DMH2, LDN", "value": "significantly more growth inhibition than DMH1"}, {"measurement": "cell growth (number of cells)", "setting": "H1299 cells [4]; H1299 cultured in SFM, 1 μM", "value": "significant inhibition of cell growth"}, {"measurement": "inhibition of ca-alk3 activity (BRE-luciferase)", "setting": "[5]", "value": "greater reduction of alk3 activity than DMH1 and LDN; also recorded: significant inhibition"}]}]}
